{
  "source": "the NIST ThermoML archive (doi:10.1021/je0301040)",
  "assay": "xn = mol fraction of the nth substance listed",
  "conditions": "Liquid",
  "note": "Numbers after ± are expanded uncertainties.",
  "data": [
    {"smiles": "FC(Cl)(Cl)Cl", "note": "[trichlorofluoromethane] + FC(F)Cl", "values": [
      {"measurement": "mass density", "setting": "230 K, 25860 kPa, Pycnometric method, x1 = 0.8336", "value": "1641.63 ± 1.8", "unit": "kg/m3"},
      {"measurement": "mass density", "setting": "230.01 K, 668.5 kPa, Pycnometric method, x1 = 0.8336", "value": "1604.47 ± 2", "unit": "kg/m3"},
      {"measurement": "mass density", "setting": "230.01 K, 1004 kPa, Pycnometric method, x1 = 0.8336", "value": "1605.02 ± 2", "unit": "kg/m3"},
      {"measurement": "mass density", "setting": "230.01 K, 2033.3 kPa, Pycnometric method, x1 = 0.8336", "value": "1606.97 ± 2", "unit": "kg/m3"},
      {"measurement": "mass density", "setting": "230.01 K, 2374.4 kPa, Pycnometric method, x1 = 0.8336", "value": "1607.47 ± 2", "unit": "kg/m3"},
      {"measurement": "mass density", "setting": "230.01 K, 2689.9 kPa, Pycnometric method, x1 = 0.8336", "value": "1608.01 ± 2", "unit": "kg/m3"},
      {"measurement": "mass density", "setting": "230.01 K, 3067 kPa, Pycnometric method, x1 = 0.8336", "value": "1608.63 ± 2", "unit": "kg/m3"},
      {"measurement": "mass density", "setting": "230.01 K, 3637.3 kPa, Pycnometric method, x1 = 0.8336", "value": "1609.58 ± 2", "unit": "kg/m3"},
      {"measurement": "mass density", "setting": "230.01 K, 12707 kPa, Pycnometric method, x1 = 0.8336", "value": "1623.4 ± 1.9", "unit": "kg/m3"},
      {"measurement": "mass density", "setting": "230.01 K, 65252 kPa, Pycnometric method, x1 = 0.8336", "value": "1686.03 ± 1.7", "unit": "kg/m3"},
      {"measurement": "mass density", "setting": "230.02 K, 1691.3 kPa, Pycnometric method, x1 = 0.8336", "value": "1606.39 ± 2", "unit": "kg/m3"},
      {"measurement": "mass density", "setting": "230.02 K, 38513 kPa, Pycnometric method, x1 = 0.8336", "value": "1657.76 ± 1.8", "unit": "kg/m3"},
      {"measurement": "mass density", "setting": "230.02 K, 51629 kPa, Pycnometric method, x1 = 0.8336", "value": "1672.95 ± 1.8", "unit": "kg/m3"},
      {"measurement": "mass density", "setting": "232.01 K, 344.5 kPa, isochoric method, x1 = 0.832", "value": "1585.93 ± 0.49", "unit": "kg/m3"},
      {"measurement": "mass density", "setting": "232.01 K, 367.9 kPa, isochoric method, x1 = 0.832", "value": "1585.93 ± 0.49", "unit": "kg/m3"},
      {"measurement": "mass density", "setting": "233.01 K, 1630.1 kPa, isochoric method, x1 = 0.832", "value": "1585.8 ± 0.49", "unit": "kg/m3"},
      {"measurement": "mass density", "setting": "234.01 K, 2889.9 kPa, isochoric method, x1 = 0.832", "value": "1585.67 ± 0.49", "unit": "kg/m3"},
      {"measurement": "mass density", "setting": "245.01 K, 363.7 kPa, isochoric method, x1 = 0.832", "value": "1556.16 ± 0.48", "unit": "kg/m3"},
      {"measurement": "mass density", "setting": "246.5 K, 2106.6 kPa, isochoric method, x1 = 0.832", "value": "1555.98 ± 0.48", "unit": "kg/m3"},
      {"measurement": "mass density", "setting": "248 K, 3843.5 kPa, isochoric method, x1 = 0.832", "value": "1555.8 ± 0.48", "unit": "kg/m3"},
      {"measurement": "mass density", "setting": "248 K, 3865.5 kPa, isochoric method, x1 = 0.832", "value": "1555.8 ± 0.48", "unit": "kg/m3"},
      {"measurement": "mass density", "setting": "248.01 K, 3870.3 kPa, isochoric method, x1 = 0.832", "value": "1555.8 ± 0.48", "unit": "kg/m3"},
      {"measurement": "mass density", "setting": "249 K, 4990.8 kPa, isochoric method, x1 = 0.832", "value": "1555.68 ± 0.48", "unit": "kg/m3"},
      {"measurement": "mass density", "setting": "264.5 K, 1262.1 kPa, isochoric method, x1 = 0.832", "value": "1513.38 ± 0.46", "unit": "kg/m3"},
      {"measurement": "mass density", "setting": "266.5 K, 3302.5 kPa, isochoric method, x1 = 0.832", "value": "1513.15 ± 0.47", "unit": "kg/m3"},
      {"measurement": "mass density", "setting": "268 K, 4830.1 kPa, isochoric method, x1 = 0.832", "value": "1512.98 ± 0.47", "unit": "kg/m3"},
      {"measurement": "mass density", "setting": "268 K, 4846.4 kPa, isochoric method, x1 = 0.832", "value": "1512.98 ± 0.47", "unit": "kg/m3"},
      {"measurement": "mass density", "setting": "269.99 K, 2096.8 kPa, Pycnometric method, x1 = 0.8336", "value": "1502.82 ± 1.9", "unit": "kg/m3"},
      {"measurement": "mass density", "setting": "269.99 K, 21561 kPa, Pycnometric method, x1 = 0.8336", "value": "1541.21 ± 1.4", "unit": "kg/m3"},
      {"measurement": "mass density", "setting": "269.99 K, 41933 kPa, Pycnometric method, x1 = 0.8336", "value": "1573.88 ± 1.3", "unit": "kg/m3"},
      {"measurement": "mass density", "setting": "270 K, 378 kPa, Pycnometric method, x1 = 0.8336", "value": "1498.95 ± 1.9", "unit": "kg/m3"},
      {"measurement": "mass density", "setting": "270 K, 696 kPa, Pycnometric method, x1 = 0.8336", "value": "1499.67 ± 1.9", "unit": "kg/m3"},
      {"measurement": "mass density", "setting": "270 K, 1081 kPa, Pycnometric method, x1 = 0.8336", "value": "1500.54 ± 1.9", "unit": "kg/m3"},
      {"measurement": "mass density", "setting": "270 K, 1383.8 kPa, Pycnometric method, x1 = 0.8336", "value": "1501.23 ± 1.9", "unit": "kg/m3"},
      {"measurement": "mass density", "setting": "270 K, 1742 kPa, Pycnometric method, x1 = 0.8336", "value": "1502.02 ± 1.9", "unit": "kg/m3"},
      {"measurement": "mass density", "setting": "270 K, 2410 kPa, Pycnometric method, x1 = 0.8336", "value": "1503.54 ± 1.9", "unit": "kg/m3"},
      {"measurement": "mass density", "setting": "270 K, 2708.1 kPa, Pycnometric method, x1 = 0.8336", "value": "1504.16 ± 1.9", "unit": "kg/m3"},
      {"measurement": "mass density", "setting": "270 K, 3130 kPa, Pycnometric method, x1 = 0.8336", "value": "1505.05 ± 1.9", "unit": "kg/m3"},
      {"measurement": "mass density", "setting": "270 K, 3854.5 kPa, Pycnometric method, x1 = 0.8336", "value": "1506.62 ± 1.9", "unit": "kg/m3"},
      {"measurement": "mass density", "setting": "270 K, 7625.3 kPa, Pycnometric method, x1 = 0.8336", "value": "1514.59 ± 1.6", "unit": "kg/m3"},
      {"measurement": "mass density", "setting": "270 K, 14726 kPa, Pycnometric method, x1 = 0.8336", "value": "1528.68 ± 1.8", "unit": "kg/m3"},
      {"measurement": "mass density", "setting": "270 K, 27467 kPa, Pycnometric method, x1 = 0.8336", "value": "1551.32 ± 1.7", "unit": "kg/m3"},
      {"measurement": "mass density", "setting": "270 K, 35271 kPa, Pycnometric method, x1 = 0.8336", "value": "1563.81 ± 1.4", "unit": "kg/m3"},
      {"measurement": "mass density", "setting": "270 K, 48894 kPa, Pycnometric method, x1 = 0.8336", "value": "1583.8 ± 1.3", "unit": "kg/m3"},
      {"measurement": "mass density", "setting": "270 K, 55535 kPa, Pycnometric method, x1 = 0.8336", "value": "1592.86 ± 1.3", "unit": "kg/m3"},
      {"measurement": "mass density", "setting": "270 K, 62211 kPa, Pycnometric method, x1 = 0.8336", "value": "1601.52 ± 1.3", "unit": "kg/m3"},
      {"measurement": "mass density", "setting": "288 K, 932.5 kPa, isochoric method, x1 = 0.832", "value": "1464.29 ± 0.45", "unit": "kg/m3"},
      {"measurement": "mass density", "setting": "290 K, 2670 kPa, isochoric method, x1 = 0.832", "value": "1464.09 ± 0.45", "unit": "kg/m3"},
      {"measurement": "mass density", "setting": "293 K, 5258.3 kPa, isochoric method, x1 = 0.832", "value": "1463.78 ± 0.46", "unit": "kg/m3"},
      {"measurement": "mass density", "setting": "293 K, 5259.5 kPa, isochoric method, x1 = 0.832", "value": "1463.78 ± 0.46", "unit": "kg/m3"},
      {"measurement": "mass density", "setting": "298.14 K, 1069.1 kPa, Pycnometric method, x1 = 0.8336", "value": "1439.09 ± 1.8", "unit": "kg/m3"},
      {"measurement": "mass density", "setting": "298.14 K, 1772.4 kPa, Pycnometric method, x1 = 0.8336", "value": "1441.18 ± 1.8", "unit": "kg/m3"},
      {"measurement": "mass density", "setting": "298.14 K, 2113.1 kPa, Pycnometric method, x1 = 0.8336", "value": "1442.22 ± 1.8", "unit": "kg/m3"},
      {"measurement": "mass density", "setting": "298.14 K, 2728.2 kPa, Pycnometric method, x1 = 0.8336", "value": "1444.75 ± 1.8", "unit": "kg/m3"},
      {"measurement": "mass density", "setting": "298.14 K, 3032.4 kPa, Pycnometric method, x1 = 0.8336", "value": "1445.59 ± 1.8", "unit": "kg/m3"},
      {"measurement": "mass density", "setting": "298.14 K, 21180 kPa, Pycnometric method, x1 = 0.8336", "value": "1490.62 ± 1.6", "unit": "kg/m3"},
      {"measurement": "mass density", "setting": "298.14 K, 49069 kPa, Pycnometric method, x1 = 0.8336", "value": "1542.62 ± 1.4", "unit": "kg/m3"},
      {"measurement": "mass density", "setting": "298.14 K, 63135 kPa, Pycnometric method, x1 = 0.8336", "value": "1564.13 ± 1.4", "unit": "kg/m3"},
      {"measurement": "mass density", "setting": "298.15 K, 390.2 kPa, Pycnometric method, x1 = 0.8336", "value": "1436.97 ± 1.8", "unit": "kg/m3"},
      {"measurement": "mass density", "setting": "298.15 K, 717.7 kPa, Pycnometric method, x1 = 0.8336", "value": "1438.05 ± 1.8", "unit": "kg/m3"},
      {"measurement": "mass density", "setting": "298.15 K, 1383.5 kPa, Pycnometric method, x1 = 0.8336", "value": "1440.04 ± 1.8", "unit": "kg/m3"},
      {"measurement": "mass density", "setting": "298.15 K, 2381.3 kPa, Pycnometric method, x1 = 0.8336", "value": "1443.01 ± 1.8", "unit": "kg/m3"},
      {"measurement": "mass density", "setting": "298.15 K, 2409.4 kPa, Pycnometric method, x1 = 0.8336", "value": "1443.8 ± 1.8", "unit": "kg/m3"},
      {"measurement": "mass density", "setting": "298.15 K, 3541.1 kPa, Pycnometric method, x1 = 0.8336", "value": "1447.03 ± 1.8", "unit": "kg/m3"},
      {"measurement": "mass density", "setting": "298.15 K, 7060.4 kPa, Pycnometric method, x1 = 0.8336", "value": "1456.68 ± 1.7", "unit": "kg/m3"},
      {"measurement": "mass density", "setting": "298.15 K, 14256 kPa, Pycnometric method, x1 = 0.8336", "value": "1474.84 ± 1.6", "unit": "kg/m3"}
    ]}
  ]
}
